Assay results: US10611740B2, “Aryl dihydro-2H-benzo[b][1,4]oxazine sulfonamide and related compounds for use as agonists of RORγ and the treatment of disease” (Lycera Corporation, priority 2015, dated 2020)

How the values were obtained:
[1] = biological target: T1, RORγ-LBD (Homo sapiens, UniProt P51449); assay: RORγ-Ligand Binding Domain (LBD) TR-FRET Assay; format: biochemical;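 on TR-FRET Assay Max Response: 665/615 nm ratio relative to signal without ursolic acid or compound set at 100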
T1 construct: made in house; host or cells: SF9 cells (baculovirus)
T1 sequence (P51449 269-508 limits assumed): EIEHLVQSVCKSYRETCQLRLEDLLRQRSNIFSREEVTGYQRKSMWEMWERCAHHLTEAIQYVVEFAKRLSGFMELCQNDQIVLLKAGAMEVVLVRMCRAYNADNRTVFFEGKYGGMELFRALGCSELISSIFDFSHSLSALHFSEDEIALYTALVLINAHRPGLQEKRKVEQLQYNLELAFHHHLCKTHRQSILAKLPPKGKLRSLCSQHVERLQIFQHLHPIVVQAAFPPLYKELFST
Outline: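 His-tagged RORγ-LBD from SF9 baculovirus lysate, ~3 nM final, in 50 mM Tris pH 7.0, 50 mM KCl, 1 mM EDTA, 0.1 mM DTT, 0.01% BSA. Biotinylated SRC1 LXXLL peptide at 200 nM final with 2 μM ursolic acid; TR-FRET read-out, 1% DMSO final.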

[2] = biological target: T2, Gal4-RORγ-LBD (Homo sapiens, UniProt P51449); assay: Gal4-RORγ Luciferase Reporter Assay in HEK-293T Cells; format: cell-based; details: HEK-293 cells, luciferase reporter, with 2 μM ursolic acid
T2 construct: expressed in transfected cells; host or cells: HEK-293 cells (pcDNA3.1neo plasmid)
T2 sequence (P51449 269-508 limits assumed): T1 sequence (P51449 269-508 limits assumed)
Outline: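 HEK-293 cells were transiently co-transfected with Gal4-RORγ-LBD and pGL4.31 Gal4-luciferase, with ursolic acid added at 2 μM final. Compounds were incubated overnight at 37° C. in 0.2% DMSO and luminescence read with One-Glo. Max Response is the upper plateau of a 4-parameter logistic fit, with signal lacking ursolic acid or compound set to 100.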

| Structure (SMILES) | EC50 [1] [µM] | TR-FRET Assay Max Response [1] | EC50 [2] [µM] | Gal4-RORγ Assay Max Response [2] |
| --- | --- | --- | --- | --- |
| CC(C)c1cccc(S(=O)(=O)N2C[C@H](CNC(=O)C(C)(C)O)Oc3ccc(-c4cccc(N(C)C)n4)cc32)c1 [Compound 30J, (S)-N-((6-(6-(dimethylamino)-pyridin-2-yl)-4-((3-isopropylphenyl)sulfonyl)-3,4-dihydro-2H-benzo[b][1,4]oxazin-2-yl)methyl)-2-hydroxy-2-methylpropanamide] | < 0.5 | **** (The symbol “****” indicates a value greater than 200) | < 0.5 | * (The symbol “*” indicates a value in the range of 25 to 90) |
| CC(C)c1cccc(S(=O)(=O)N2C[C@H](CNC(=O)C(C)(C)O)Oc3ccc(-c4cc(F)ccc4F)cc32)c1 [Compound 30K, (S)-N-((6-(2,5-difluorophenyl)-4-((3-isopropylphenyl)sulfonyl)-3,4-dihydro-2H-benzo[b][1,4]-oxazin-2-yl)methyl)-2-hydroxy-2-methylpropanamide] | < 0.5 | **** (The symbol “****” indicates a value greater than 200) | < 0.5 | * (The symbol “*” indicates a value in the range of 25 to 90) |
| COc1cc(F)cc(-c2ccc3c(c2)N(S(=O)(=O)c2cccc(C(F)(F)F)c2)C[C@H](CNC(=O)C(C)(C)O)O3)c1F [Compound 30L, (S)-N-((6-(2,5-difluoro-3-methoxyphenyl)-4-((3-(trifluoromethyl)phenyl)sulfonyl)-3,4-dihydro-2H-benzo[b][1,4]oxazin-2-yl)methyl)-2-hydroxy-2-methylpropanamide] | < 0.5 | **** (The symbol “****” indicates a value greater than 200) | < 0.5 | * (The symbol “*” indicates a value in the range of 25 to 90) |
| COc1cc(S(=O)(=O)N2C[C@H](CCNC(=O)C(C)(C)O)Oc3ccc(-c4cc(F)ccc4F)cc32)ccc1F [Compound 30M, (S)-N-(2-(6-(2,5-difluorophenyl)-4-((4-fluoro-3-methoxyphenyl)-sulfonyl)-3,4-dihydro-2H-benzo[b][1,4]oxazin-2-yl)ethyl)-2-hydroxy-2-methylpropanamide] | < 0.5 | *** (The symbol “***” indicates a value in the range of greater than 150 to 200) | < 0.5 | * (The symbol “*” indicates a value in the range of 25 to 90) |
| COc1cccc(-c2ccc3c(c2)N(S(=O)(=O)c2ccc(F)c(OC)c2)C[C@H](CCNC(=O)C(C)(C)O)O3)c1 [Compound 30N, (S)-N-(2-(4-((4-fluoro-3-methoxyphenyl)sulfonyl)-6-(3-methoxyphenyl)-3,4-dihydro-2H-benzo[b][1,4]oxazin-2-yl)ethyl)-2-hydroxy-2-methylpropanamide] | < 0.5 | *** (The symbol “***” indicates a value in the range of greater than 150 to 200) | < 0.5 | * (The symbol “*” indicates a value in the range of 25 to 90) |
| COc1cc(S(=O)(=O)N2C[C@H](CCNC(=O)C(C)(C)O)Oc3ccc(-c4cccc(C(F)(F)F)n4)cc32)ccc1F [Compound 30O, (S)-N-(2-(4-((4-fluoro-3-methoxyphenyl)sulfonyl)-6-(6-(trifluoromethyl)pyridin-2-yl)-3,4-dihydro-2H-benzo[b][1,4]-oxazin-2-yl)ethyl)-2-hydroxy-2-methylpropanamide] | < 0.5 | **** (The symbol “****” indicates a value greater than 200) | < 0.5 | ** (The symbol “**” indicates a value in the range of greater than 90 to 150) |
| CC(C)(O)C(=O)NCC[C@H]1CN(S(=O)(=O)c2cccc(OC(F)F)c2)c2cc(-c3cc(F)ccc3F)ccc2O1 [Compound 30P, (S)-N-(2-(4-((3-(difluoro-methoxy)phenyl)sulfonyl)-6-(2,5-difluorophenyl)-3,4-dihydro-2H-benzo[b][1,4]oxazin-2-yl)ethyl)-2-hydroxy-2-methylpropanamide] | < 0.5 | **** (The symbol “****” indicates a value greater than 200) | < 0.5 | ** (The symbol “**” indicates a value in the range of greater than 90 to 150) |
| COc1cc(S(=O)(=O)N2C[C@H](CNC(=O)C(C)(C)O)Oc3ccc(-c4cc(F)ccc4F)cc32)ccc1F [Compound 30Q, (S)-N-((6-(2,5-difluorophenyl)-4-((4-fluoro-3-methoxyphenyl)-sulfonyl)-3,4-dihydro-2H-benzo[b][1,4]oxazin-2-yl)methyl)-2-hydroxy-2-methylpropanamide] | < 0.5 | **** (The symbol “****” indicates a value greater than 200) | < 0.5 | * (The symbol “*” indicates a value in the range of 25 to 90) |
| CC(C)(O)C(=O)NC[C@H]1CN(S(=O)(=O)c2cccc(OC(F)F)c2)c2cc(-c3cc(F)ccc3F)ccc2O1 [Compound 30R, (S)-N-((4-((3-(difluoromethoxy)-phenyl)sulfonyl)-6-(2,5-difluorophenyl)-3,4-dihydro-2H-benzo[b][1,4]oxazin-2-yl)methyl)-2-hydroxy-2-methylpropanamide] | < 0.5 | **** (The symbol “****” indicates a value greater than 200) | < 0.5 | ** (The symbol “**” indicates a value in the range of greater than 90 to 150) |
| COc1cccc(-c2ccc3c(c2)N(S(=O)(=O)c2ccc(F)c(OC)c2)C[C@H](CNC(=O)C(C)(C)O)O3)c1 [Compound 30S, (S)-N-((4-((4-fluoro-3-methoxyphenyl)sulfonyl)-6-(3-methoxyphenyl)-3,4-dihydro-2H-benzo[b][1,4]oxazin-2-yl)methyl)-2-hydroxy-2-methylpropanamide] | < 0.5 | **** (The symbol “****” indicates a value greater than 200) | < 0.5 | * (The symbol “*” indicates a value in the range of 25 to 90) |
| CC(C)(O)C(=O)NC[C@H]1CN(S(=O)(=O)c2cncc(C(F)(F)F)c2)c2cc(-c3cc(F)ccc3F)ccc2O1 [Compound 30U, (S)-N-((6-(2,5-difluorophenyl)-4-((5-(trifluoromethyl)pyridin-3-yl)sulfonyl)-3,4-dihydro-2H-benzo[b][1,4]oxazin-2-yl)methyl)-2-hydroxy-2-methylpropanamide] | < 0.5 | *** (The symbol “***” indicates a value in the range of greater than 150 to 200) | < 0.5 | ** (The symbol “**” indicates a value in the range of greater than 90 to 150) |
| C[C@@](O)(C(=O)NC[C@H]1CN(S(=O)(=O)c2cccc(C(F)(F)F)c2)c2cc(-c3cc(F)ccc3F)ccc2O1)C(F)(F)F [Compound 30V, (R)-N-(((S)-6-(2,5-difluoro-phenyl)-4-((3-(trifluoromethyl)-phenyl)sulfonyl)-3,4-dihydro-2H-benzo[b][1,4]oxazin-2-yl)methyl)-3,3,3-trifluoro-2-hydroxy-2-methylpropanamide] | < 0.5 | **** (The symbol “****” indicates a value greater than 200) | < 0.5 | * (The symbol “*” indicates a value in the range of 25 to 90) |
| C[C@](O)(C(=O)NC[C@H]1CN(S(=O)(=O)c2cccc(C(F)(F)F)c2)c2cc(-c3cc(F)ccc3F)ccc2O1)C(F)(F)F [Compound 30W, (S)-N-(((S)-6-(2,5-difluoro-phenyl)-4-((3-(trifluoromethyl)-phenyl)sulfonyl)-3,4-dihydro-2H-benzo[b][1,4]oxazin-2-yl)methyl)-3,3,3-trifluoro-2-hydroxy-2-methylpropanamide] | < 0.5 | **** (The symbol “****” indicates a value greater than 200) | < 0.5 | ** (The symbol “**” indicates a value in the range of greater than 90 to 150) |
| COc1cc(S(=O)(=O)N2C[C@H](CNC(=O)[C@@](C)(O)C(F)(F)F)Oc3ccc(-c4cc(F)ccc4F)cc32)ccc1F [Compound 30X, (R)-N-(((S)-6-(2,5-difluorophenyl)-4-((4-fluoro-3-methoxyphenyl)sulfonyl)-3,4-dihydro-2H-benzo[b][1,4]oxazin-2-yl)methyl)-3,3,3-trifluoro-2-hydroxy-2-methylpropanamide] | < 0.5 | *** (The symbol “***” indicates a value in the range of greater than 150 to 200) | < 0.5 | * (The symbol “*” indicates a value in the range of 25 to 90) |
| O=C(NC[C@H]1CN(S(=O)(=O)c2cccc(C(F)(F)F)c2)c2cc(-c3cc(F)ccc3F)ccc2O1)C1CC1 [Compound 30Y, (S)-N-((6-(2,5-difluorophenyl)-4-((3-(trifluoromethyl)phenyl)-sulfonyl)-3,4-dihydro-2H-benzo[b][1,4]oxazin-2-yl)-methyl)cyclopropane-carboxamide] | < 0.5 | **** (The symbol “****” indicates a value greater than 200) | < 0.5 | ** (The symbol “**” indicates a value in the range of greater than 90 to 150) |
